Assay results: publication PMC10033419, “Blocking NS3–NS4B interaction inhibits dengue virus in non-human primates” (Nature, 2023)

Tested on: DENV-1/45AZ5
Assay: NHP DENV-1 study, serum viral RNA RT-qPCR
Format: in vivo, rhesus macaques
Method: WRAIR is fully accredited by AAALAC International.
Serum samples from macaques were checked for the presence of DENV-1 RNA. Viral RNA for RT–qPCR was extracted from 100–200 µl of serum using the QIAcube instrumentation and the QIAGEN Viral RNA extraction kits. The primers and fluorogenic probes used in the RT–qPCR assays have been previously described[63],[64]. DENV-1 RNA was detected in a 25 µl reaction containing 5 µl of extracted RNA sample, 10 pmol of dengue-specific primers and 5 pmol dengue probe in the reaction mixture from Superscript Ill Platinum One-Step Quantitative RT-PCR Kit (Invitrogen, Thermo Fisher Scientific), consisting of 0.5 µl Superscript III RT/Platinum mix, 12.5 µl 2× reaction mix and 0.05 µl ROX reference dye. The one-step RT–qPCR comprises a 30 min RT step at 50 °C and 2 min of Taq polymerase activation at 94 °C, followed by 40 cycles of PCR at 94 °C for 5 s and 53 °C for 35 s performed in an ABI 7500DX Fast Real Time PCR system. Each assay included positive, negative and non-template controls. The RNA copy number was calculated from a standard curve of tenfold serial dilutions made from RNA in vitro transcripts consisting of DENV-1 with known copy numbers. The LLOQ was 100 genomic copies per reaction.
This sample size was sufficient to detect a significant difference in the number of infected animals in each of the groups as low as 83%. […] Sample processing and conducting of assays was performed by laboratory technicians not involved in the treatment/manipulation of the animals.

COc1cc(N[C@H](C(=O)c2c[nH]c3ccc(OC(F)(F)F)cc23)c2ccc(Cl)cc2OC)cc(S(C)(=O)=O)c1 [JNJ-1802]
0.00E+00 GE/mL: qRT-PCR Assay Average GE/mL (animal R9, Day 29, LOQ 100 GE/reaction) | qRT-PCR Assay Average GE/mL (animal R10, Day 0, Assay LOQ = 100 GE/reaction) | qRT-PCR Assay Average GE/mL (animal R10, Day 1, Assay LOQ = 100 GE/reaction) | qRT-PCR Assay Average GE/mL (animal R10, Day 2, Assay LOQ = 100 GE/reaction) | qRT-PCR Assay Average GE/mL (animal R10, Day 3, Assay LOQ = 100 GE/reaction) | qRT-PCR Assay Average GE/mL (animal R10, Day 4, Assay LOQ = 100 GE/reaction) | qRT-PCR Assay Average GE/mL (animal R10, Day 5, Assay LOQ = 100 GE/reaction) | qRT-PCR Assay Average GE/mL (animal R10, Day 6, Assay LOQ = 100 GE/reaction) | qRT-PCR Assay Average GE/mL (animal R10, Day 7, Assay LOQ = 100 GE/reaction) | qRT-PCR Assay Average GE/mL (animal R10, Day 8, Assay LOQ = 100 GE/reaction) | qRT-PCR Assay Average GE/mL (animal R10, Day 9, Assay LOQ = 100 GE/reaction) | qRT-PCR Assay Average GE/mL (animal R10, Day 10, Assay LOQ = 100 GE/reaction) | qRT-PCR Assay Average GE/mL (animal R10, Day 11, Assay LOQ = 100 GE/reaction) | qRT-PCR Assay Average GE/mL (animal R10, Day 14, Assay LOQ = 100 GE/reaction) | qRT-PCR Assay Average GE/mL (animal R10, Day 29, Assay LOQ = 100 GE/reaction) | qRT-PCR Assay Average GE/mL (animal R11, Day 0, Assay LOQ = 100 GE/reaction) | qRT-PCR Assay Average GE/mL (animal R11, Day 1, Assay LOQ = 100 GE/reaction) | qRT-PCR Assay Average GE/mL (animal R11, Day 2, Assay LOQ = 100 GE/reaction) | qRT-PCR Assay Average GE/mL (animal R11, Day 3, Assay LOQ = 100 GE/reaction) | qRT-PCR Assay Average GE/mL (animal R11, Day 4, Assay LOQ = 100 GE/reaction) | qRT-PCR Assay Average GE/mL (animal R11, Day 5, Assay LOQ = 100 GE/reaction) | qRT-PCR Assay Average GE/mL (animal R11, Day 6, Assay LOQ = 100 GE/reaction) | qRT-PCR Assay Average GE/mL (animal R11, Day 7, Assay LOQ = 100 GE/reaction) | qRT-PCR Assay Average GE/mL (animal R11, Day 8, Assay LOQ = 100 GE/reaction) | qRT-PCR Assay Average GE/mL (animal R11, Day 9, Assay LOQ = 100 GE/reaction) | qRT-PCR Assay Average GE/mL (animal R11, Day 10, Assay LOQ = 100 GE/reaction) | qRT-PCR Assay Average GE/mL (animal R11, Day 11, Assay LOQ = 100 GE/reaction) | qRT-PCR Assay Average GE/mL (animal R11, Day 14, Assay LOQ = 100 GE/reaction) | qRT-PCR Assay Average GE/mL (animal R11, Day 29, Assay LOQ = 100 GE/reaction) | qRT-PCR Assay Average GE/mL (animal R12, Day 0, Assay LOQ = 100 GE/reaction) | qRT-PCR Assay Average GE/mL (animal R12, Day 1, Assay LOQ = 100 GE/reaction) | qRT-PCR Assay Average GE/mL (animal R12, Day 2, Assay LOQ = 100 GE/reaction) | qRT-PCR Assay Average GE/mL (animal R12, Day 3, Assay LOQ = 100 GE/reaction) | qRT-PCR Assay Average GE/mL (animal R12, Day 4, Assay LOQ = 100 GE/reaction) | qRT-PCR Assay Average GE/mL (animal R12, Day 5, Assay LOQ = 100 GE/reaction) | qRT-PCR Assay Average GE/mL (animal R12, Day 6, Assay LOQ = 100 GE/reaction) | qRT-PCR Assay Average GE/mL (animal R12, Day 7, Assay LOQ = 100 GE/reaction) | qRT-PCR Assay Average GE/mL (animal R12, Day 8, Assay LOQ = 100 GE/reaction) | qRT-PCR Assay Average GE/mL (animal R12, Day 9, Assay LOQ = 100 GE/reaction) | qRT-PCR Assay Average GE/mL (animal R12, Day 10, Assay LOQ = 100 GE/reaction) | qRT-PCR Assay Average GE/mL (animal R12, Day 11, Assay LOQ = 100 GE/reaction) | qRT-PCR Assay Average GE/mL (animal R12, Day 14, Assay LOQ = 100 GE/reaction) | qRT-PCR Assay Average GE/mL (animal R12, Day 29, Assay LOQ = 100 GE/reaction)
Negative: qRT-PCR Assay Result (animal R10, Day 0) | qRT-PCR Assay Result (animal R10, Day 1) | qRT-PCR Assay Result (animal R10, Day 2) | qRT-PCR Assay Result (animal R10, Day 3) | qRT-PCR Assay Result (animal R10, Day 4) | qRT-PCR Assay Result (animal R10, Day 5) | qRT-PCR Assay Result (animal R10, Day 6) | qRT-PCR Assay Result (animal R10, Day 7) | qRT-PCR Assay Result (animal R10, Day 8) | qRT-PCR Assay Result (animal R10, Day 9) | qRT-PCR Assay Result (animal R10, Day 10) | qRT-PCR Assay Result (animal R10, Day 11) | qRT-PCR Assay Result (animal R10, Day 14) | qRT-PCR Assay Result (animal R10, Day 29) | qRT-PCR Assay Result (animal R11, Day 0) | qRT-PCR Assay Result (animal R11, Day 1) | qRT-PCR Assay Result (animal R11, Day 2) | qRT-PCR Assay Result (animal R11, Day 3) | qRT-PCR Assay Result (animal R11, Day 4) | qRT-PCR Assay Result (animal R11, Day 5) | qRT-PCR Assay Result (animal R11, Day 6) | qRT-PCR Assay Result (animal R11, Day 7) | qRT-PCR Assay Result (animal R11, Day 8) | qRT-PCR Assay Result (animal R11, Day 9) | qRT-PCR Assay Result (animal R11, Day 10) | qRT-PCR Assay Result (animal R11, Day 11) | qRT-PCR Assay Result (animal R11, Day 14) | qRT-PCR Assay Result (animal R11, Day 29) | qRT-PCR Assay Result (animal R12, Day 0) | qRT-PCR Assay Result (animal R12, Day 1) | qRT-PCR Assay Result (animal R12, Day 2) | qRT-PCR Assay Result (animal R12, Day 3) | qRT-PCR Assay Result (animal R12, Day 4) | qRT-PCR Assay Result (animal R12, Day 5) | qRT-PCR Assay Result (animal R12, Day 6) | qRT-PCR Assay Result (animal R12, Day 7) | qRT-PCR Assay Result (animal R12, Day 8) | qRT-PCR Assay Result (animal R12, Day 9) | qRT-PCR Assay Result (animal R12, Day 10) | qRT-PCR Assay Result (animal R12, Day 11) | qRT-PCR Assay Result (animal R12, Day 14) | qRT-PCR Assay Result (animal R12, Day 29)
